Reference: the supplement of paper PMC10307832

How the values were obtained:
Assay in all cases: relative viability (nuclei count vs DMSO), 5 days (fraction); higher = more cells survive
Ruxolitinib + Bortezomib = compound: N#CC[C@H](C1CCCC1)n1cc(-c2ncnc3[nH]ccc23)cn1 [Ruxolitinib] + CC(C)C[C@H](NC(=O)[C@H](Cc1ccccc1)NC(=O)c1cnccn1)B(O)O [Bortezomib] (partner 0.002 µM)
In short: (§1)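 Each reported value is a median over duplicate plates. It expresses relative viability: treated-well nuclei count divided by vehicle-well nuclei count. Lung cancer cell lines in 1536-well plates were dosed by pin tool a day after seeding, alone with one drug or with a fixed anchor-drug dose plus five library-drug doses (not always all listed) in √10 steps, and nuclei were counted after 5 days.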

Vismodegib + Foretinib = compound: CS(=O)(=O)c1ccc(C(=O)Nc2ccc(Cl)c(-c3ccccn3)c2)c(Cl)c1 [Vismodegib] + COc1cc2c(Oc3ccc(NC(=O)C4(C(=O)Nc5ccc(F)cc5)CC4)cc3F)ccnc2cc1OCCCN1CCOCC1 [Foretinib] (partner 0.25 µM)
In short: as §1

VE-821 + Foretinib = compound: CS(=O)(=O)c1ccc(-c2cnc(N)c(C(=O)Nc3ccccc3)n2)cc1 [VE-821] + COc1cc2c(Oc3ccc(NC(=O)C4(C(=O)Nc5ccc(F)cc5)CC4)cc3F)ccnc2cc1OCCCN1CCOCC1 [Foretinib] (partner 0.25 µM)
In short: as §1

Ruxolitinib + Luminespib = compound: N#CC[C@H](C1CCCC1)n1cc(-c2ncnc3[nH]ccc23)cn1 [Ruxolitinib] + CCNC(=O)c1noc(-c2cc(C(C)C)c(O)cc2O)c1-c1ccc(CN2CCOCC2)cc1 [Luminespib] (partner 0.01 µM)
In short: as §1

Cell Line | relative viability (Ruxolitinib + Bortezomib; first compound 0.08 µM) | relative viability (Ruxolitinib + Bortezomib; first compound 0.253 µM) | relative viability (Ruxolitinib + Bortezomib; first compound 0.8 µM) | relative viability (Ruxolitinib + Bortezomib; first compound 2.53 µM) | relative viability (Ruxolitinib + Bortezomib; first compound 8 µM) | relative viability (Vismodegib + Foretinib; first compound 0.08 µM) | relative viability (Vismodegib + Foretinib; first compound 0.253 µM) | relative viability (Vismodegib + Foretinib; first compound 0.8 µM) | relative viability (Vismodegib + Foretinib; first compound 2.53 µM) | relative viability (Vismodegib + Foretinib; first compound 8 µM) | relative viability (VE-821 + Foretinib; first compound 0.08 µM) | relative viability (VE-821 + Foretinib; first compound 0.253 µM) | relative viability (VE-821 + Foretinib; first compound 0.8 µM) | relative viability (VE-821 + Foretinib; first compound 2.53 µM) | relative viability (VE-821 + Foretinib; first compound 8 µM) | relative viability (Ruxolitinib + Luminespib; first compound 0.08 µM) | relative viability (Ruxolitinib + Luminespib; first compound 0.253 µM) | relative viability (Ruxolitinib + Luminespib; first compound 0.8 µM) | relative viability (Ruxolitinib + Luminespib; first compound 2.53 µM) | relative viability (Ruxolitinib + Luminespib; first compound 8 µM)
NCI-H647 | 0.867 | 0.942 | 1.23 | 0.783 | 0.885 | 1.24 | 1.22 | 1.26 | 1.02 | 1.14 | 1.51 | 1.29 | 1.01 | 1.14 | 0.801 | 0.18 | 0.228 | 0.367 | 0.0851 | 0.144
LXF-289 | 1 | 0.963 | 0.991 | 0.933 | 0.897 | 0.943 | 0.913 | 1.01 | 0.97 | 0.922 | 1.02 | 0.991 | 0.98 | 1.04 | 1.07 | 0.608 | 0.784 | 0.732 | 0.674 | 0.628
PC-3 [JPC-3] | 0.63 | 0.819 | 0.738 | 0.796 | 0.7 | 1.08 | 1.01 | 0.965 | 0.993 | 1.03 | 1.12 | 0.947 | 1.07 | 1.06 | 0.976 | 0.663 | 0.677 | 0.755 | 0.579 | 0.734
NCI-H2009 | 1.19 | 0.963 | 1.31 | 0.828 | 0.646 | 1.23 | 1.23 | 1.29 | 1.19 | 1.23 | 1.34 | 1.26 | 1.1 | 1.28 | 1.23 | 0.99 | 1.1 | 0.99 | 0.93 | 0.817
NCI-H1993 | 0.893 | 1.02 | 1.23 | 1.26 | 1.29 | 0.863 | 0.654 | 0.782 | 0.773 | 0.675 | 0.84 | 0.736 | 0.595 | 0.737 | 0.724 | 0.758 | 0.784 | 0.863 | 0.508 | 0.803
HCC-15 | 1.08 | 1.05 | 1.01 | 0.99 | 0.926 | 1.01 | 0.964 | 1.04 | 1.09 | 1.04 | 1.16 | 1.1 | 1.1 | 1.27 | 0.98 | 0.345 | 0.216 | 0.555 | 0.302 | 0.203
NCI-H322M | 1.18 | 1.31 | 1.26 | 1.52 | 1.64 | 1.01 | 0.965 | 1.01 | 0.87 | 0.97 | 1.07 | 0.879 | 0.89 | 0.858 | 0.393 | 0.806 | 0.927 | 0.918 | 0.984 | 1.17
